Data published in patent US20050158435A1, “Process for producing sdg and foods and drinks containing the same” (Suntory Limited, priority 2002, published 2005).

Legend:
Assay type in all cases: in vivo, rat
ovariectomized rats [1] = test: Uterine weight in ovariectomized rats
Source text: (§1) Wistar-strain female rats (Charles River Japan, Inc.) were used, among which 41 animals were ovariectomized at 6 weeks of age and 9 animals were sham-operated at the same age, and raised on not-purified chow (CE 2; Clea Japan). After a week, the ovariectomized rats were divided into […]. The sham-operated non-ovariectomized group […] was used as a positive control.
(§2) Group I and group V and non-ovariectomized group had free access for 4 weeks to a basic diet consisting of AIN-93M Mix purified diet without Ca (Oriental Yeast Co., Ltd.). Group II, group III and group IV were fed with the basic diet supplemented with 0.1% each of soybean isoflavone, SDG (composition 4), and a combination of soybean isoflavone and SDG, respectively. Group V was treated with 17β estradiol at 1 μg/day by subcutaneous administration through the period of ingesting the test diet. During the raising period, the temperature at the tail skin of the rat was measured with a precision thermometer BAT-12R (Physitemp).
At the end of the studies in Example 7, the rats were autopsied and measured for uterine weight.

ovariectomized rats [2] = test: Bone mass (femoral dry weight) in ovariectomized rats; conditions: 4 weeks
Source text: (§3) It is known that after the menopause bone mass decreases through the activation of osteoclasts due to estrogen decline and causes osteoporotic symptoms. Estrogen decline may disturb the balance of lipid metabolism to cause symptoms such as hyperlipidemia and hypercholesterolemia. Ovariectomized female rats are commonly used as model animals of menopausal symptoms because ovariectomy induces the above symptoms due to the decline of estrogen levels. […] Wistar-strain female rats (Charles River Japan, Inc.) were used, among which 34 animals were ovariectomized (OVX) at 6 weeks of age and 9 animals were sham-operated (Sham) at the same age, and raised on not-purified chow (CE 2; Clea Japan). After 2 weeks, the ovariectomized rats were divided into 4 groups (n=8-9) called groups I to IV. The sham-operated non-ovariectomized group (group V, n=9) was used as a positive control. Group I and group V were free access for 4 weeks to a basic diet consisting of AIN-93M Mix purified diet without Ca (Oriental Yeast Co., Ltd.). […] On the end date of raising the rats, they were weighed and then anatomized to collect blood and dissect the right femur. After adherent tissues were removed, the femur dissected from the rat's right leg was dried at 100° C. for 24 hours and weighed.

ovariectomized rats [3] = test: Antiobesity effect: body weight changes in ovariectomized rats; conditions: forced oral administration once a day for 14 days after ovariectomy (FIG. 2)
Source text: Female Wister-strain rats at 7 weeks of age were ovariectomized and treated with each sample once a day by forced oral administration using a metal gastric tube for 14 days after surgery. Each group consisted of 8 animals (n=8). The animals were weighed to evaluate the effect on obesity due to increased appetite after the menopause. The samples used were 17β estradiol as a positive control and genistein as a reference sample, which is a major compound of soybean isoflavone. The SDG sample was composition 4.

ovariectomized rats [4] = test: Hot flashes model: temperature at the tail skin of ovariectomized rats; conditions: 0.1% in diet, 4 weeks (FIG. 3)
Experimental: A sharp decline of estrogen levels after the menopause invites hormone imbalance and autonomic failure to cause vasomotor disturbance-like symptoms such as hot flashes. In experimental animals, ovariectomy of female rats induces a rise in the temperature at the tail skin and symptoms corresponding to hot flashes among menopausal symptoms. The temperature at the tail skin was measured in ovariectomized rats treated with SDG and soybean isoflavone.
as §1
as §2, with “Group V was treated with 17β estradiol at 1 μg/day by subcutaneous administration through the period of ingesting the test diet.” left out

ovariectomized rats [5] = test: Blood triglyceride levels in ovariectomized rats; conditions: 0.1% in diet, 4 weeks
Source text: as §3, with “Evaluation of lipid metabolism-improving effect: Plasma was isolated” for “After adherent tissues were removed, the femur dissected”, “rat blood and assayed” for “the rat's right leg was dried at 100° C.”, “triglyceride by an automatic analyzer (Hitachi).” for “24 hours and weighed.”

“secoisolariciresinol diglycoside [composition 4]” was tested, and the Uterine weight (ovariectomized rats [1]; 0.1% in diet, 4 weeks) was 105.5 ± 6.8 mg, the “Femoral dry weight (per 100 g body weight)” value (ovariectomized rats [2]; ovariectomized Wistar female rats, basic diet supplemented with 0.1% of sample) was 90.9 ± 2.7 mg and the “Inhibition of bone mass decline vs group I (ovariectomized control)” value (ovariectomized rats [2]; ovariectomized rats, 0.1% in diet) was “tendency of inhibiting bone mass decline”. The Body weight gain (ovariectomized rats [3]; 50 mg/Kg) was “body weight gain was inhibited”, the “Rise in the temperature at the tail skin” value (ovariectomized rats [4]) was “the rise was inhibited” and the “Inhibition of triglyceride increase vs group I” value (ovariectomized rats [5]) was “significant inhibitory effect”. For the same molecule, the Blood triglyceride (ovariectomized rats [5]; plasma, *p<0.05, ** vs. group I) was 32.0 ± 3.2* mg/dl.

`C[C@]12CC[C@@H]3c4ccc(O)cc4CC[C@H]3[C@@H]1CC[C@@H]2O` [17β estradiol] was tested, and the Uterine weight (ovariectomized rats [1]; 1 μg/day subcutaneous administration, ***P < 0.001 vs. group I) was 443.9 ± 28.8*** mg, the Uterine atrophy (ovariectomized rats [1]; autopsy at the end of Example 7) was “did not show uterine atrophy” and the Body weight gain (ovariectomized rats [3]; 0.02 mg/kg) was “body weight gain was inhibited”.

In the case of `O=c1c(-c2ccc(O)cc2)coc2cc(O)cc(O)c12` [genistein], the Body weight gain (ovariectomized rats [3]; 100 mg/Kg) is reported as “body weight gain was inhibited”.
